System: Acinetobacter baumannii strains
Test: Antibiotic susceptibility test (CLSI disk diffusion test method, read per CLSI 2016)
Type: cell-based
Parameters: antibiotic susceptibility test value / susceptibility test value (number given before S/I/R) / antibiotic susceptibility value: unit not given here
Method: (§1) Strain identification was performed using a kit such as AT 32 GN system (bioMérieux, Marcy l'Etoile, France). […] In Table 2 below, S, I, and R are the results obtained by evaluating susceptibility to the antibacterial agents, in which ‘S’ means susceptible, ‘I’ means intermediate, and ‘R’ means resistant.
as §1, with “as ATB” for “as AT”, “system (bioMédrieux,” for “system (bioMérieux,”, “Table 6” for “Table 2”
as §1, with “as ATB” for “as AT”, “Table 10” for “Table 2”, “susceptible, T” for “susceptible, ‘I’”

## colistin
Host strain YMC16/01/R353
  antibiotic susceptibility value: 0.5
  susceptibility category (S/I/R): S
  susceptibility test value (number given before S/I/R): 0.5
Host strain YMC16/01/R380
  antibiotic susceptibility S/I/R: S
  antibiotic susceptibility value: 0.5
  susceptibility category (S/I/R): S
  susceptibility test value (number given before S/I/R): 0.5
Host strain YMC16/01/R397
  antibiotic susceptibility S/I/R: S
  antibiotic susceptibility value: 0.5
  susceptibility category (S/I/R): S
  susceptibility test value (number given before S/I/R): 0.5
Host strain YMC16/01/R405
  antibiotic susceptibility S/I/R: S
  antibiotic susceptibility value: 0.5
  susceptibility category (S/I/R): S
  susceptibility test value (number given before S/I/R): 0.5
Host strain YMC16/03/R4461
  antibiotic susceptibility S/I/R: R
  antibiotic susceptibility value: 16
  susceptibility category (S/I/R): R
  susceptibility test value (number given before S/I/R): 16
Host strain YMC16/05/R2210
  antibiotic susceptibility S/I/R: R
  antibiotic susceptibility value: 16
  susceptibility category (S/I/R): R
  susceptibility test value (number given before S/I/R): 16
Host strain YMC16/07/R2512
  antibiotic susceptibility S/I/R: R
  antibiotic susceptibility value: 16
  susceptibility category (S/I/R): R
  susceptibility test value (number given before S/I/R): 16
Host strain YMC16/09/R2471
  antibiotic susceptibility S/I/R: R
  antibiotic susceptibility value: 16
  susceptibility category (S/I/R): R
  susceptibility test value (number given before S/I/R): 16
Host strain YMC16/10/R2537
  antibiotic susceptibility S/I/R: R
  antibiotic susceptibility value: 16
  susceptibility category (S/I/R): R
  susceptibility test value (number given before S/I/R): 16
Host strain YMC16/12/B11422
  antibiotic susceptibility S/I/R: S
  antibiotic susceptibility value: 0.5
  susceptibility category (S/I/R): S
  susceptibility test value (number given before S/I/R): 0.5
Host strain YMC16/12/B11449
  antibiotic susceptibility S/I/R: S
  antibiotic susceptibility value: 0.5
  susceptibility category (S/I/R): S
  susceptibility test value (number given before S/I/R): 0.5
Host strain YMC16/12/B13325
  antibiotic susceptibility S/I/R: S
  antibiotic susceptibility value: 0.5
  susceptibility category (S/I/R): S
  susceptibility test value (number given before S/I/R): 0.5
Host strain YMC16/12/P503
  antibiotic susceptibility S/I/R: R
  antibiotic susceptibility value: 16
  susceptibility category (S/I/R): R
  susceptibility test value (number given before S/I/R): 16
Host strain YMC16/12/R4637
  antibiotic susceptibility S/I/R: R
  antibiotic susceptibility value: 16
  susceptibility category (S/I/R): R
  susceptibility test value (number given before S/I/R): 16
Host strain YMC17/01/B8053
  antibiotic susceptibility S/I/R: S
  antibiotic susceptibility value: 0.5
  susceptibility category (S/I/R): S
  susceptibility test value (number given before S/I/R): 0.5
Host strain YMC17/01/B10087
  antibiotic susceptibility S/I/R: S
  antibiotic susceptibility value: 0.5
  susceptibility category (S/I/R): S
  susceptibility test value (number given before S/I/R): 0.5
Host strain YMC17/01/B12075
  antibiotic susceptibility S/I/R: S
  antibiotic susceptibility value: 22
  susceptibility category (S/I/R): S
  susceptibility test value (number given before S/I/R): 22
Host strain YMC17/01/B13454
  antibiotic susceptibility S/I/R: S
  antibiotic susceptibility value: 0.5
  susceptibility category (S/I/R): S
  susceptibility test value (number given before S/I/R): 0.5
Host strain YMC17/01/P518
  antibiotic susceptibility S/I/R: S
  antibiotic susceptibility value: 0.5
  susceptibility category (S/I/R): S
  susceptibility test value (number given before S/I/R): 0.5
Host strain YMC17/01/R2812
  antibiotic susceptibility S/I/R: R
  antibiotic susceptibility value: 16
  susceptibility category (S/I/R): R
  susceptibility test value (number given before S/I/R): 16
Host strain YMC17/02/B14
  antibiotic susceptibility S/I/R: S
  antibiotic susceptibility value: 0.5
  susceptibility category (S/I/R): S
  susceptibility test value (number given before S/I/R): 0.5
Host strain YMC17/02/B87
  antibiotic susceptibility S/I/R: S
  antibiotic susceptibility value: 0.5
  susceptibility category (S/I/R): S
  susceptibility test value (number given before S/I/R): 0.5
Host strain YMC17/02/B721
  antibiotic susceptibility S/I/R: S
  antibiotic susceptibility value: 0.5
  susceptibility category (S/I/R): S
  susceptibility test value (number given before S/I/R): 0.5
Host strain YMC17/02/B4039
  antibiotic susceptibility S/I/R: S
  antibiotic susceptibility value: 0.5
  susceptibility category (S/I/R): S
  susceptibility test value (number given before S/I/R): 0.5
Host strain YMC17/02/B4520
  antibiotic susceptibility S/I/R: S
  antibiotic susceptibility value: 0.5
  susceptibility category (S/I/R): S
  susceptibility test value (number given before S/I/R): 0.5
Host strain YMC17/02/B4864
  antibiotic susceptibility S/I/R: S
  antibiotic susceptibility value: 0.5
  susceptibility category (S/I/R): S
  susceptibility test value (number given before S/I/R): 0.5
Host strain YMC17/02/B8414
  antibiotic susceptibility S/I/R: S
  antibiotic susceptibility value: 0.5
  susceptibility category (S/I/R): S
  susceptibility test value (number given before S/I/R): 0.5
Host strain YMC17/02/P523
  antibiotic susceptibility S/I/R: S
  antibiotic susceptibility value: 0.5
  susceptibility category (S/I/R): S
  susceptibility test value (number given before S/I/R): 0.5
Host strain YMC17/02/R541
  antibiotic susceptibility S/I/R: R
  antibiotic susceptibility value: 16
  susceptibility category (S/I/R): R
  susceptibility test value (number given before S/I/R): 16
Host strain YMC17/02/R2392
  antibiotic susceptibility S/I/R: R
  antibiotic susceptibility value: 16
  susceptibility category (S/I/R): R
  susceptibility test value (number given before S/I/R): 4
Host strain YMC17/03/B4730
  antibiotic susceptibility S/I/R: S
  antibiotic susceptibility value: 0.5
  susceptibility category (S/I/R): S
  susceptibility test value (number given before S/I/R): 0.5
Host strain YMC17/03/B5000
  antibiotic susceptibility S/I/R: S
  antibiotic susceptibility value: 0.5
  susceptibility category (S/I/R): S
  susceptibility test value (number given before S/I/R): 0.5
Host strain YMC17/03/P971
  antibiotic susceptibility S/I/R: R
  antibiotic susceptibility value: 16
  susceptibility category (S/I/R): R
  susceptibility test value (number given before S/I/R): 16
Host strain YMC17/03/R348
  antibiotic susceptibility S/I/R: R
  antibiotic susceptibility value: 16
  susceptibility category (S/I/R): R
  susceptibility test value (number given before S/I/R): 4
Host strain YMC17/03/R585
  antibiotic susceptibility S/I/R: R
  antibiotic susceptibility value: 16
  susceptibility category (S/I/R): R
  susceptibility test value (number given before S/I/R): 16
Host strain YMC17/03/R1888
  antibiotic susceptibility S/I/R: R
  antibiotic susceptibility value: 16
  susceptibility category (S/I/R): R
  susceptibility test value (number given before S/I/R): 16
Host strain YMC17/03/R3279
  antibiotic susceptibility S/I/R: R
  antibiotic susceptibility value: 16
  susceptibility category (S/I/R): R
  susceptibility test value (number given before S/I/R): 16
Host strain YMC17/03/R4077
  antibiotic susceptibility S/I/R: S
  antibiotic susceptibility value: 0.5
  susceptibility category (S/I/R): S
  susceptibility test value (number given before S/I/R): 0.5
Host strain YMC17/03/R4607
  antibiotic susceptibility S/I/R: S
  antibiotic susceptibility value: 0.5
  susceptibility category (S/I/R): S
  susceptibility test value (number given before S/I/R): 0.5
Host strain YMC17/04/R488
  antibiotic susceptibility S/I/R: R
  antibiotic susceptibility value: 8
  susceptibility category (S/I/R): R
  susceptibility test value (number given before S/I/R): 8
Host strain YMC17/04/R640
  antibiotic susceptibility S/I/R: R
  antibiotic susceptibility value: 8
  susceptibility category (S/I/R): R
  susceptibility test value (number given before S/I/R): 8
Host strain YMC/17/05/R1095
  antibiotic susceptibility S/I/R: R
  antibiotic susceptibility value: 16
  susceptibility category (S/I/R): R
  susceptibility test value (number given before S/I/R): 16
